From patent publication US6723715B1, “14, 15-cyclopropanosteroids of the 19-norandrostane series, method for producing said compounds and pharmaceutical preparation containing said compounds” (Schering AG, priority 1999, dated 2004) come the findings set out here.

One assay deals with T1, androgen receptor (Homo sapiens, UniProt P10275).
T1 sequence (P10275 1-920): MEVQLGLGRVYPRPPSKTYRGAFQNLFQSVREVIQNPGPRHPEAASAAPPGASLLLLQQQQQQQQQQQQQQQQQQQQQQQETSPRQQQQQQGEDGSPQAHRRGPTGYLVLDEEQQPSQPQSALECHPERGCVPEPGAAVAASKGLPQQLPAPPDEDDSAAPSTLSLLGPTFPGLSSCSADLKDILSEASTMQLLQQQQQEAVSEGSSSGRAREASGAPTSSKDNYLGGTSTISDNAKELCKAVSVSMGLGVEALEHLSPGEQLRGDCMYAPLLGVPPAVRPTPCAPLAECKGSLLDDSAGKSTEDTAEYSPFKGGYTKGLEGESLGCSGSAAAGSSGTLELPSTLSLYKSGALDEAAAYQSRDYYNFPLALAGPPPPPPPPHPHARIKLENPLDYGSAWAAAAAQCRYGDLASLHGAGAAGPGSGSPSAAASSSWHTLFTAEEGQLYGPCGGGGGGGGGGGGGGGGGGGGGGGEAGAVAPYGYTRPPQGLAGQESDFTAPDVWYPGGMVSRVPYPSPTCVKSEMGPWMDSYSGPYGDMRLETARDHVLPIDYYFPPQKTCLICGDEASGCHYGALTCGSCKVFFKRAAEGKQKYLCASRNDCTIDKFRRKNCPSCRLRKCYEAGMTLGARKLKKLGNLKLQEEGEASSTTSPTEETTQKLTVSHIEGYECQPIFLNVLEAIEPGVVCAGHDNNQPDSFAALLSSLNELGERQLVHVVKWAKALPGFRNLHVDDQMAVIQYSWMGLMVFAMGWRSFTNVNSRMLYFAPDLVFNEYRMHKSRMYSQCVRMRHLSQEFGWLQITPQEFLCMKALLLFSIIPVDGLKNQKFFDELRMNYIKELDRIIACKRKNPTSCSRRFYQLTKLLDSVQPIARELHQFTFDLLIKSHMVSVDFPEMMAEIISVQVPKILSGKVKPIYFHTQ
Kind of assay: binding to the androgen receptor relative to R 1881. The conditions noted are these: R 1881=100%.

Another assay deals with T2, progesterone receptor (Homo sapiens, UniProt P06401).
T2 sequence (P06401 1-933): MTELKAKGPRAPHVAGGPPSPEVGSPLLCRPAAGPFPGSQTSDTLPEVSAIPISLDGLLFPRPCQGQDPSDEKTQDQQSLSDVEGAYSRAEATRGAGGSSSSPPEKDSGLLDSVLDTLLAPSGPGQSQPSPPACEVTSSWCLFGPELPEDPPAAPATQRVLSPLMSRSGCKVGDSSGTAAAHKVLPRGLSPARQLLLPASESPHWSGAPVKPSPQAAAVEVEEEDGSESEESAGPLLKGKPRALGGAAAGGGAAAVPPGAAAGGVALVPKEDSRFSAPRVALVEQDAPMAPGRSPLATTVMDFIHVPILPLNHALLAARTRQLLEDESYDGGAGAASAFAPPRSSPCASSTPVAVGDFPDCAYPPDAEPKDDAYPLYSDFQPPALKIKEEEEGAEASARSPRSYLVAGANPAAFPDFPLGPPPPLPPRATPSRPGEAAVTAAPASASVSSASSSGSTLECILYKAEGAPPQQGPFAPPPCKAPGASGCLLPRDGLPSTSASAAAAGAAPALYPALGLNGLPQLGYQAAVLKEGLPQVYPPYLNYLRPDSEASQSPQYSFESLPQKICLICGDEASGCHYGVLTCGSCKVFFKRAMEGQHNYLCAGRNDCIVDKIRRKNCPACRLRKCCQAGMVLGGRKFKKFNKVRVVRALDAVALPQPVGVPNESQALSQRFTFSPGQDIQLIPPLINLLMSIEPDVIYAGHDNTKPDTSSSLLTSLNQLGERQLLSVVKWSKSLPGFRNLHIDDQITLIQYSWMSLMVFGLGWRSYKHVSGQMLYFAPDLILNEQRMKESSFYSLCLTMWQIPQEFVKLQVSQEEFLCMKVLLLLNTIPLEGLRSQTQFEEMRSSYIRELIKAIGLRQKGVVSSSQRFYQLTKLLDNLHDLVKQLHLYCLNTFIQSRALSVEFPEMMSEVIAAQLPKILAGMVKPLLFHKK
Briefly: binding to the progesterone receptor relative to progesterone. The conditions noted are these: progesterone=100%.

As for `C[C@]12CC[C@H]3[C@@H](CCC4=C(Cl)C(=O)CC[C@@H]43)[C@@]13C[C@H]3C[C@@H]2O` [4-Chloro-17β-hydroxy-14α,15α-methylene-estr-4-ene-3-one], at androgen receptor, the “binds to the extent of % to the androgen receptor” value came to 98%. Moreover, on progesterone receptor, the “binds to the extent of % to the progesterone receptor” value was determined as 5.5%.
As to `C[C@]12C=CC3=C4CCC(=O)C=C4CC[C@H]3[C@@]13C[C@H]3C[C@@H]2O` [17β-Hydroxy-14α,15α-methylene-estr-4,9,11-triene-3-one], the “binds to the extent of % to the androgen receptor” value on androgen receptor is 58%. Also, the “binds to the extent of % to the progesterone receptor” value at progesterone receptor came out at 36%.
